According to patent US20240383852A1, “ANTI-VIRAL COMPOUNDS” (INFEX Therapeutics Limited, priority 2021, published 2024):
Structures can show the parent of a compound that is named as a salt. Where two headings read alike, the source gives them in different places.

Assays:
[1] = molecular target: T1, SARS-CoV-2 PLpro (Severe acute respiratory syndrome coronavirus 2, UniProt P0DTD1); assay: biochemical
T1 construct: containing 60 nM papain-like protease

[2] = tested on: human Hep G2 cells (ATCC HB-8065); assay: Cytotoxicity in Hep G2 cells (CellTiter-Glo); type: cell-based
[3] = tested on: SARS-CoV-2; assay: Anti-viral potency in VERO E6 cells (cytopathic viral activity, crystal violet); type: cell-based; settings: Severe acute respiratory syndrome coronavirus 2, Vero C1008, 48 h, read-out: SARS-COV-2 EC50 (μM)
[4] = 60 nM papain-like protease, 50 μM Z-RLRGG-AMC, pH 7.5, 37° C., read-out: SARS-CoV-2 PLpro IC50
[5] = Hep G2 cells, 100 μM test article, 24-hour exposure

SMILES	IC50 [1, 4]	% Cell Viability [2, 5]	EC50 [3]	IC50 [1]	% Cell Viability ([2]; human, 24 h, 100 μM)
COc1ccc([C@@H](C)NC(=O)c2cc(C3CCN(C)CC3)ccc2C)cc1-c1cnn(C)c1 [Example 300, N-[(1R)-1-[4-Methoxy-3-(1-methylpyrazol-4-yl)phenyl]ethyl]-2-methyl-5-(1-methyl-4-piperidyl)benzamide]	< 2 µM	74.7%	< 5 µM		
Cc1ccc(N2CCN(C)CC2)cc1C(=O)N[C@H](C)c1cccc(-c2cc(C(=O)N(C)C)n(C)c2)c1 [Example 102, N,N,1-Trimethyl-4-[3-[(1R)-1-[[2-methyl-5-(4-methylpiperazin-1-yl)benzoyl]amino]ethyl]phenyl]pyrrole-2-carboxamide]	< 2 µM	75.9%	< 5 µM		
COc1ccc([C@@H](C)NC(=O)c2cc(N3C[C@H]4CC[C@@H](C3)N4)ccc2C)cc1-c1cnn(C)c1 [Example 266, 5-[(1S,5R)-3,8-Diazabicyclo[3.2.1]octan-3-yl]-N-[(1R)-1-[4-methoxy-3-(1-methylpyrazol-4-yl)phenyl]ethyl]-2-methyl-benzamide hydrochloride salt]			< 5 µM	< 2 µM	61.1%
COc1ccc([C@@H](C)NC(=O)c2cc(N3C[C@H]4CC[C@@H](C3)N4C)ccc2C)cc1OC [Example 11, N-[(1R)-1-(3,4-Dimethoxyphenyl)ethyl]-2-methyl-5-[(1R,5S)-8-methyl-3,8-diazabicyclo[3.2.1]octan-3-yl]benzamide]			< 5 µM	< 2 µM	95.6%
COc1ccc([C@@H](C)NC(=O)c2cc(N3CCN(C)CC3)ccc2C)cc1-c1cn(C)nc1C [Example 212, N-[(1R)-1-[3-(1,3-Dimethylpyrazol-4-yl)-4-methoxy-phenyl]ethyl]-2-methyl-5-(4-methylpiperazin-1-yl)benzamide]	< 2 µM	96.8%	< 5 µM		
COc1cc(-c2cnn(C)c2)cc([C@@H](C)NC(=O)c2cc(N3CCN(CC4CC4)CC3)ccc2C)c1 [Example 245, 5-[4-(Cyclopropylmethyl)piperazin-1-yl]-N-[(1R)-1-[3-methoxy-5-(1-methylpyrazol-4-yl)phenyl]ethyl]-2-methyl-benzamide]	< 2 µM	58.4%	< 5 µM		
COc1cc(OC)c([C@@H](C)NC(=O)c2cc(N3CCN(C)CC3)ccc2C)cc1-c1cnn(C)c1 [Example 215, N-[(1R)-1-[2,4-Dimethoxy-5-(1-methylpyrazol-4-yl)phenyl]ethyl]-2-methyl-5-(4-methylpiperazin-1-yl)benzamide]	< 2 µM	80.1%	< 5 µM		
COc1cc(-c2cc(C(=O)N(C)C)n(C)c2)cc([C@@H](C)NC(=O)c2cc(N3CCN(C)CC3)ccc2C)c1 [Example 289, 4-[3-Methoxy-5-[(1R)-1-[[2-methyl-5-(4-methylpiperazin-1-yl)benzoyl]amino]ethyl]phenyl]-N,N,1-trimethyl-pyrrole-2-carboxamide]	< 2 µM	59.5%	< 5 µM		
COc1ccc([C@@H](C)NC(=O)c2cc(N3CCNCC3)ccc2C)cc1-c1cnn(C)c1 [Example 260, N-[(1R)-1-[4-Methoxy-3-(1-methylpyrazol-4-yl)phenyl]ethyl]-2-methyl-5-piperazin-1-yl-benzamide]	< 2 µM	91.1%	< 15 µM		
Cc1ccc(N2CCN(C)CC2)cc1C(=O)N[C@H](C)c1ccc(F)c(-c2cnn(C)c2)c1 [Example 217, N-[(1R)-1-[4-Fluoro-3-(1-methylpyrazol-4-yl)phenyl]ethyl]-2-methyl-5-(4-methylpiperazin-1-yl)benzamide]	< 2 µM	61.7%	< 5 µM		
Cc1ccc(N2CCN(C)CC2)cc1C(=O)N[C@H](C)c1ccc(Cl)c(-c2cnn(C)c2)c1 [Example 252, N-[(1R)-1-[4-Chloro-3-(1-methylpyrazol-4-yl)phenyl]ethyl]-2-methyl-5-(4-methylpiperazin-1-yl)benzamide]	< 2 µM	49.4%	< 5 µM		
CCn1cc(-c2cc(OC)cc([C@@H](C)NC(=O)c3cc(N4CCN(C)CC4)ccc3C)c2)cn1 [Example 220, N-[(1R)-1-[3-(1-Ethylpyrazol-4-yl)-5-methoxy-phenyl]ethyl]-2-methyl-5-(4-methylpiperazin-1-yl)benzamide]	< 2 µM	80.7%	< 15 µM		
COc1ccc([C@@H](C)NC(=O)c2cc(N3CCN(C)CC3)ccc2C)cc1-c1nccs1 [Example 251, N-[(1R)-1-(4-Methoxy-3-thiazol-2-yl-phenyl)ethyl]-2-methyl-5-(4-methylpiperazin-1-yl)benzamide]	< 2 µM	63.2%	< 5 µM		
COc1cc(-c2cnn(C)c2C)cc([C@@H](C)NC(=O)c2cc(N3CCN(C)CC3)ccc2C)c1 [Example 253, N-[(1R)-1-[3-(1,5-Dimethylpyrazol-4-yl)-5-methoxy-phenyl]ethyl]-2-methyl-5-(4-methylpiperazin-1-yl)benzamide hydrochloride salt]	< 2 µM	89.3%	< 5 µM		
COc1ccc([C@@H](C)NC(=O)c2cc(N3C[C@H]4C[C@@H]3CN4C)ccc2C)cc1-c1cnn(C)c1 [Example 227, N-[(1R)-1-[4-Methoxy-3-(1-methylpyrazol-4-yl)phenyl]ethyl]-2-methyl-5-[(1R,4R)-5-methyl-2,5-diazabicyclo[2.2.1]heptan-2-yl]benzamide]	< 2 µM	89.9%	< 5 µM		
COc1cc([C@@H](C)NC(=O)c2cc(N3CCN(C)CC3)ccc2C)ccc1OCCN1CCOCC1 [Example 293, N-[(1R)-1-[3-Methoxy-4-(2-morpholinoethoxy)phenyl]ethyl]-2-methyl-5-(4-methylpiperazin-1-yl)benzamide]	< 2 µM	102.3%	< 5 µM		
CCn1cc(-c2cccc([C@@H](C)NC(=O)c3cc(N4CCN(C)CC4)ccc3C)c2)cn1 [Example 64, N-[(1R)-1-[3-(1-Ethylpyrazol-4-yl)phenyl]ethyl]-2-methyl-5-(4-methylpiperazin-1-yl)benzamide]	< 2 µM	78.6%	< 5 µM		
COc1cc(-c2cnn(C)c2)cc([C@@H](C)NC(=O)c2cc(N3C[C@H]4C[C@@H]3CN4C)ccc2C)c1 [Example 244, N-[(1R)-1-[3-Methoxy-5-(1-methylpyrazol-4-yl)phenyl]ethyl]-2-methyl-5-[(1R,4R)-5-methyl-2,5-diazabicyclo[2.2.1]heptan-2-yl]benzamide]	< 2 µM	67.1%	< 5 µM		
COc1cc(-c2cnn(C)c2)cc([C@@H](C)NC(=O)c2cc(N3CCN(C)CC3)ccc2C)c1 [Example 219, N-[(1R)-1-[3-Methoxy-5-(1-methylpyrazol-4-yl)phenyl]ethyl]-2-methyl-5-(4-methylpiperazin-1-yl)benzamide]	< 2 µM		< 5 µM		
Cc1ccc(N2CCN(C)CC2)cc1C(=O)N[C@H](C)c1cccc(-c2cccc(C(=O)N3CCN(C)CC3)c2)c1 [Example 88, 2-Methyl-N-[(1R)-1-[3-[3-(4-methylpiperazine-1-carbonyl)phenyl]phenyl]ethyl]-5-(4-methylpiperazin-1-yl)benzamide]	< 2 µM	78.8%			
Cc1ccc(N2CCN(C)CC2)cc1C(=O)N[C@H](C)c1cc(-c2cnn(C)c2)cs1 [Example 232, 2-Methyl-5-(4-methylpiperazin-1-yl)-N-[(1R)-1-[4-(1-methylpyrazol-4-yl)-2-thienyl]ethyl]benzamide]	< 5 µM	75.2%			
COc1cc(OC)c([C@@H](C)NC(=O)c2cc(N3CCN(C)CC3)ccc2C)cc1-c1ccccc1 [Example 216, N-[(1R)-1-(2,4-Dimethoxy-5-phenyl-phenyl)ethyl]-2-methyl-5-(4-methylpiperazin-1-yl)benzamide]	< 2 µM	0.6%			
COc1ccc([C@@H](C)NC(=O)c2cc(N3C[C@@H]4C[C@H]3CN4)ccc2C)cc1OC [Example 18, 5-[(1S,4S)-2,5-Diazabicyclo[2.2.1]heptan-2-yl]-N-[(1R)-1-(3,4-dimethoxyphenyl)ethyl]-2-methyl-benzamide]	< 20 µM	119.3%			
Cc1ccc(N2CCN(C)CC2)cc1C(=O)N[C@H](C)c1cccc(-c2ccc(N)nc2)c1 [Example 67, N-[(1R)-1-[3-(6-Amino-3-pyridyl)phenyl]ethyl]-2-methyl-5-(4-methylpiperazin-1-yl)benzamide]	< 2 µM	58.7%			
COc1cc(-c2cnn(C)c2)cc([C@@H](C)NC(=O)c2cc(C3CCNCC3)ccc2C)c1 [Example 303, N-[(1R)-1-[3-Methoxy-5-(1-methylpyrazol-4-yl)phenyl]ethyl]-2-methyl-5-(4-piperidyl)benzamide]	< 2 µM	73.2%			
Cc1ccc(N2CCN(C)CC2)cc1C(=O)N[C@H](C)c1ccc(Cl)c(Br)c1 [Example 201, N-[(1R)-1-(3-Bromo-4-chloro-phenyl)ethyl]-2-methyl-5-(4-methylpiperazin-1-yl)benzamide]	< 2 µM	1.0%			
Cc1ccc(N2CCN(C)CC2)cc1C(=O)N[C@H](C)c1cccc(-c2cccc(CO)c2)c1 [Example 42, N-[(1R)-1-[3-[3-(Hydroxymethyl)phenyl]phenyl]ethyl]-2-methyl-5-(4-methylpiperazin-1-yl)benzamide]	< 2 µM	64.1%			
